Results: patent US11654196B2, “Dosing regimens for echinocandin class compounds” (priority 2012, dated 2023)
Where two headings read alike, the source gives them in different places. *1 amine or outer side, *2 acyl side, *3 side chain or, on linkers, in order; H or OH if unused. Where a SMILES comes first, the peptide text is derived from it. Bridges are numbered along the chain shown (N, C = ends). [ ]: non-standard residue; d: D form. The star is where a group is joined. pTerphenylCO(4''-OnC5H11) = CCCCCOc1ccc(-c2ccc(-c3ccc(C(=O)*)cc3)cc2)cc1; Orn(4R-OH,5R-OH) = O=C([C@H](C[C@@H](O)[C@@H](O)N[*:3])N[*:1])[*:2]; hTyr(3S-OH,4S-OH) = N[C@H](C(=O)O)[C@H](O)[C@@H](O)c1ccc(O)cc1; Pro(3S-OH,4S-Me) = C[C@H]1CN[C@H](C(=O)O)[C@H]1O; Hyp = O=C(O)[C@@H]1C[C@@H](O)CN1

Experiments:
[1] = Dog, literature values; cited from earlier work
[2] = Stability in monkey plasma; format: in vitro ADME
Experimental: (§1) Stock solutions of compound 22 and anidulafungin were prepared in DMSO at a concentration of 1 mg/mL. Plasma samples were prepared by mixing plasma with 10% volume of 1 M sodium phosphate, pH 7.4, to minimize pH fluctuation, and stock solution to produce plasma samples containing approximately 10,000 ng/mL compound 22 or anidulafungin. For the stability experiments in PBS buffer, plasma was replaced with phosphate buffered saline, pH 7.4. The DMSO concentration was 1% in the final incubation. Multiple individual aliquots (0.5 mL each) were prepared, capped, and incubated at 37° C. At each stability time point, the reaction was stopped by removing the sample from the incubator and adding 0.5 mL of acetonitrile containing internal standard. Samples were centrifuged for approximately 5 minutes at 10000 rpm to precipitate the proteins. Stability was measured in five different matrices (i.e. rat plasma, dog plasma, monkey plasma, human plasma, and PBS). An aliquot (100 μL) of supernatant of each sample was assayed by HPLC. The percentage of anidulafungin and compound 22 remaining at each time point was calculated by dividing the peak area ratio at each time point by the peak area ratio at time zero.

[3] = Stability in rat plasma; format: in vitro ADME
Experimental: as §1

[4] = Rat, literature values; cited from earlier work
[5] = Man, literature values; cited from earlier work
[6] = Rabbit, literature values; cited from earlier work
[7] = Mouse, literature values; cited from earlier work
[8] = Pharmacokinetics in chimpanzee, oral dose; format: in vivo
Experimental: Pharmacokinetic studies were performed in six adult female chimpanzees. Two chimpanzees received 1-mg/kg IV dose of compound 22 formulated in 5% dextrose (60-minute infusion). Two chimpanzees received 10-mg/kg oral dose of compound 22 formulated in 5% citric acid (oral bolus). Two chimpanzees received 1-mg/kg IV dose of anidulafungin formulated as package label (5% dextrose, 60-minute infusion). Plasma samples were collected from all chimps for 10 days to 22 days. PK curves are depicted in FIGS. 16A, 16B, and 18. All pharmacokinetic calculations were performed using WinNonlin version 4.1 (Pharsight Corp) by noncompartmental analysis.

[9] = Circulating half-life in mouse; format: in vivo; settings: assays conducted by applicant
[10] = Storage stability of solutions and lyophilized formulations (HPLC); format: physicochemical; settings: for Loss in potency: clear vial, ambient light, 4 months
[11] = Dissolution profile of tableted formulation 17; format: physicochemical
Experimental: A dissolution study of the tablet of formulation 17 was performed using 500 mL of 100 mM Acetate Buffer pH 5.2 as the medium. The method utilized Apparatus 2 with a paddle speed of 50 rpm, a tablet sinker, and the run time was 60 minutes. […] The HPLC method was a gradient method using an Agilent Zorbax Bonus-RP column (250×4.6 mm) (column temperature of 60° C., wavelength of 300 nm, with Mobile Phase A=33 mM sodium pentanesulfonate pH 4.0 and Mobile Phase B=acetonitrile). The samples were injected neat with an injection volume of 15 μL.

## CCCCCOc1ccc(-c2ccc(-c3ccc(C(=O)N[C@H]4C[C@@H](O)[C@@H](O)NC(=O)[C@@H]5[C@@H](O)[C@@H](C)CN5C(=O)[C@H]([C@@H](C)O)NC(=O)[C@H]([C@H](O)[C@@H](O)c5ccc(O)cc5)NC(=O)[C@@H]5C[C@@H](O)CN5C(=O)[C@H]([C@@H](C)O)NC4=O)cc3)cc2)cc1 [Anidulafungin, anidulafungin, reference compound] ({pTerphenylCO(4''-OnC5H11)}-[Orn(4R-OH,5R-OH)]T[Hyp][hTyr(3S-OH,4S-OH)]T[Pro(3S-OH,4S-Me)]; lactam 1-C)
[1]
  Half-life: 15 h
[2]; monkey plasma, 37° C., 0 h
  % remaining: 100%
[2]; monkey plasma, 37° C., 1 h
  % remaining: 106%
[2]; monkey plasma, 37° C., 2 h
  % remaining: 111%
[2]; monkey plasma, 37° C., 4 h
  % remaining: 68.1%
[2]; monkey plasma, 37° C., 8 h
  % remaining: 76.0%
[2]; monkey plasma, 37° C., 21 h
  % remaining: 22.4%
[2]; monkey plasma, 37° C., 44 h
  % remaining: 13.8%
[3]; rat plasma, 37° C., 0 h
  % remaining: 100%
[3]; rat plasma, 37° C., 1 h
  % remaining: 84.3%
[3]; rat plasma, 37° C., 2 h
  % remaining: 76.5%
[3]; rat plasma, 37° C., 4 h
  % remaining: 45.6%
[3]; rat plasma, 37° C., 8 h
  % remaining: 23.2%
[3]; rat plasma, 37° C., 21 h
  % remaining: 7.3%
[3]; rat plasma, 37° C., 44 h
  % remaining: 7.4%
[4]
  Half-life: 18 h
[5]
  Half-life: 24 to 26 h
[6]
  Half-life: 4 to 6 h
[7]
  Half-life: 14 to 20 h

## CC(=O)[O-].CCCCCOc1ccc(-c2ccc(-c3ccc(C(=O)NC4CC(O)C(OCC[N+](C)(C)C)NC(=O)C5C(O)C(C)CN5C(=O)C(C(C)O)NC(=O)C(C(O)C(O)c5ccc(O)cc5)NC(=O)C5CC(O)CN5C(=O)C(C(C)O)NC4=O)cc3)cc2)cc1 (stereo not shown) [Compound 22]
[8]; chimpanzees, 10-mg/kg oral bolus in 5% citric acid
  Oral bioavailability: 4.5%
[8]; chimpanzees, 10-mg/kg oral bolus in 5% citric acid, mean of 2 chimps
  Plasma half-life (PO): 99 h
[8]; values based upon chimpanzee studies
  Oral bioavailability used to calculate human circulating concentrations: 5%
[2]; monkey, plasma, 0 h
  % remaining: 100%
[2]; monkey, plasma, 1 h
  % remaining: 109%
[2]; monkey, plasma, 2 h
  % remaining: 110%
[2]; monkey, plasma, 4 h
  % remaining: 143%
[2]; monkey, plasma, 8 h
  % remaining: 115%
[2]; monkey, plasma, 21 h
  % remaining: 104%
[2]; monkey, plasma, 44 h
  % remaining: 93.5%
[9]
  Half-life: 44 to 71 h
[3]; rat, plasma, 0 h
  % remaining: 100%
[3]; rat, plasma, 1 h
  % remaining: 103%
[3]; rat, plasma, 2 h
  % remaining: 106%
[3]; rat, plasma, 4 h
  % remaining: 138%
[3]; rat, plasma, 8 h
  % remaining: 99.3%
[3]; rat, plasma, 21 h
  % remaining: 96.5%
[3]; rat, plasma, 44 h
  % remaining: 91.2%
[10]; 5% Dextrose Solution (1.3 and 1.1 mg/mL) and 0.9% Sterile Saline Solution (1.3 mg/mL), room temperature
  Loss in potency: less than 5%
[10]; accelerated aging at 40° C., 5% Dextrose, 20 mM Acetate Buffer pH 4.5, 20 mM Lactate pH 6.0 (3.3 mg/mL)
  Loss in potency: less than 5%
[10]; as a solid or in solution
  Stability upon storage: commercially acceptable stability
[11]; tablet of formulation 17, 100 mM acetate buffer pH 5.2, 5 minutes
  % Compound 22 Dissolved: 23%
[11]; tablet of formulation 17, 100 mM acetate buffer pH 5.2, 10 minutes
  % Compound 22 Dissolved: 48%
[11]; tablet of formulation 17, 100 mM acetate buffer pH 5.2, 15 minutes
  % Compound 22 Dissolved: 62%
[11]; tablet of formulation 17, 100 mM acetate buffer pH 5.2, 30 minutes
  % Compound 22 Dissolved: 93%
[11]; tablet of formulation 17, 100 mM acetate buffer pH 5.2, 45 minutes
  % Compound 22 Dissolved: 96%
[11]; tablet of formulation 17, 100 mM acetate buffer pH 5.2, 60 minutes
  % Compound 22 Dissolved: 97%
